In brackets after ≈: the same amount, converted by molar mass.
How the values were obtained:
Assay type in all cases: cell-based
[1] = tested on: Streptococcus pneumoniae; experiment: Bacterial susceptibility testing in liquid media (MIC), Streptococcus pneumoniae; settings: lowest concentration reducing growth by 80% or more, 37 degrees C., 24 hrs, read-out: MIC against Streptococcus pneumoniae
Description: (§1) Compounds were tested for antimicrobial activity by susceptibility testing in liquid media. Compounds were dissolved in dimethylsulfoxide and tested in 10 doubling dilutions in the susceptibility assays. The organisms used in the assay were grown overnight on suitable agar media and then suspended in a liquid medium appropriate for the growth of the organism. The suspension was a 0.5 McFarland and a further 1 in 10 dilution was made into the same liquid medium to prepare the final organism suspension in 100 μL. Plates were incubated under appropriate conditions at 37 degrees C. for 24 hrs prior to reading. The Minimum Inhibitory Concentration was determined as the lowest drug concentration able to reduce growth by 80% or more.

[2] = tested on: HIN446; experiment: Bacterial susceptibility testing in liquid media (MIC), HIN446; settings: strain HIN446; lowest concentration reducing growth by 80% or more; 37 degrees C., 24 hrs
Description: as §1

[3] = tested on: MCA445; experiment: Bacterial susceptibility testing in liquid media (MIC), MCA445; settings: strain MCA445; lowest concentration reducing growth by 80% or more; 37 degrees C., 24 hrs
Description: as §1

[4] = tested on: SPN548; experiment: Bacterial susceptibility testing in liquid media (MIC), SPN548; settings: strain SPN548; lowest concentration reducing growth by 80% or more; 37 degrees C., 24 hrs
Description: as §1

[5] = tested on: SAU516; experiment: Bacterial susceptibility testing in liquid media (MIC), SAU516; settings: strain SAU516; lowest concentration reducing growth by 80% or more; 37 degrees C., 24 hrs
Description: as §1

[6] = tested on: EFM073; experiment: Bacterial susceptibility testing in liquid media (MIC), EFM073; settings: strain EFM073; lowest concentration reducing growth by 80% or more; 37 degrees C., 24 hrs
Description: as §1

Row | MIC [1] [µg/mL] | SMILES | MIC HIN446 [2] [µg/mL] | MIC MCA445 [3] [µg/mL] | MIC SPN548 [4] [µg/mL] | MIC SAU516 [5] [µg/mL] | MIC EFM073 [6] [µg/mL]
1 | 0.13 (≈ 0.281 µM) | CO[C@@H]1CN(c2cc(C(=O)O)nc(Cl)n2)CC[C@@H]1NC(=O)c1[nH]c(C)c(Cl)c1Cl (racemic) [Example 48, Cis(±)2-Chloro-6-(4-{[(3,4-dichloro-5-methyl-1H-pyrrol-2-yl)carbonyl]amino}-3-methoxypiperidin-1-yl)pyrimidine-4-carboxylic acid] |  |  |  |  | 
2 |  | CO[C@@H]1CN(c2cc(C(=O)O)nc3ccccc23)CC[C@@H]1NC(=O)c1cc(Cl)c(C)[nH]1 (racemic) [Example 60, Cis(±)4-(4-{[(4-chloro-5-methyl-1H-pyrrol-2-yl)carbonyl]amino}-3-methoxypiperidin-1-yl)quinoline-2-carboxylic acid] | 4 (≈ 9.03 µM) | 0.25 (≈ 0.564 µM) | 2 (≈ 4.52 µM) | 2 (≈ 4.52 µM) | 8 (≈ 18.1 µM)
3 |  | CO[C@@H]1CN(c2cc(C(=O)O)ncc2Cl)CC[C@@H]1NC(=O)c1[nH]c(C)c(Cl)c1Cl (racemic) [Example 315, Cis(±)-5-chloro-4-(4-{[(3,4-dichloro-5-methyl-1H-pyrrol-2-yl)carbonyl]amino}-3-methoxypiperidin-1-yl)pyridine-2-carboxylic acid] | 2 (≈ 4.33 µM) | 0.13 (≈ 0.282 µM) | 0.5 (≈ 1.08 µM) | 4 (≈ 8.66 µM) | 4 (≈ 8.66 µM)
4 |  | CO[C@H]1CN(c2nc3cccc(C(=O)O)c3s2)CC[C@H]1NC(=O)c1[nH]c(C)c(Cl)c1Cl [Example 294] | 0.031 (≈ 0.0641 µM) | 0.001 (≈ 0.00207 µM) | 0.0039 (≈ 0.00807 µM) | 0.031 (≈ 0.0641 µM) | 0.016 (≈ 0.0331 µM)
5 |  | Cc1[nH]c(C(=O)N[C@@H]2CCN(c3cc(C(=O)O)ccn3)C[C@@H]2F)c(Cl)c1Cl [Example 345, 2-((3S,4R)-4-{[(3,4-dichloro-5-methyl-1H-pyrrol-2-yl)carbonyl]amino}-3-fluoropiperidin-1-yl)isonicotinic acid] | 0.25 (≈ 0.602 µM) | 0.031 (≈ 0.0747 µM) | 0.03 (≈ 0.0722 µM) | 0.5 (≈ 1.2 µM) | 0.13 (≈ 0.313 µM)

Reference: patent US8399489B2, “Antibacterial piperdine derivatives” (Astrazeneca AB, priority 2005, dated 2013)
